Read-outs that look alike come from different tables or passages of the source.
Experiments:
[1] = target: T1, ERK5 (Homo sapiens, UniProt Q13164); test: Probe-based (AX9989 acyl phosphate ATP probe) kinase profiling in Jurkat lysate: ERK5; assay type: binding; conditions: for IC50: Jurkat lysate
T1 construct: screened for activity against several kinases in Jurkat cells; endogenous in cells; host or cells: Jurkat cell lysate
Summary of the method: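 Gel-filtered Jurkat lysate (5 mg/ml, 20 mM MnCl2) preincubated 15 min at room temperature with compound, then labelled with 5 μM AX9989 acyl phosphate ATP probe. Probe-labelled ERK5 active-site peptides quantified by LC/MS after trypsin digestion and streptavidin capture; IC50 calculated from percent inhibition at the screening concentration.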

[2] = target: T2, BRD4 bromodomain domain I [BRD4(1)] (Homo sapiens, UniProt O60885); test: BRD4 bromodomain domain 1 inhibition assay (TR-FRET); assay type: binding; conditions: screening concentration 10 μM
T2 construct: BRD4 bromodomain domain I [BRD4(1)]; purchased Cayman Chemicals
Description: The inhibitory activity of test compounds on the bromodomain, BRD4 bromodomain domain I [BRD4(1)], were determined via TR-FRET after a slight modification of the manufacturer's protocol (Cayman Chemicals, Ann Arbor, Mich.). Briefly, compounds were diluted to a 20× ([…]) concentration in DMSO. 100 nL of 20× compounds were then dry stamped into triplicate wells of black, low volume 384 well plates (Aurora Biotechnologies, Carlsbad, Calif.) using the Mosquito liquid handler (TPP Labtech, Melbourn, UK). 20× compounds were then diluted to a 4× (40 μM) concentration in Assay Buffer to result in 2% DMSO content. […] JQ1 at 10 μM or 0.5% DMSO final concentrations were used as the positive and negative controls, respectively, to set the assay window. The fluorescence was read in a time-resolved format on the Biotec Synergy 2 plate reader by exciting the signal at 340 nm and reading emissions at 620 and 670, using a 100 μs delay and 200 μs read window. […] Briefly, TR-FRET ratio values were normalized to the average TR-FRET ratio value given by 10 μM JQ1. […]

[3] = system: human PBMCs; test: Human PBMC TNF-α response to endotoxin (ELISA); assay type: cell-based; conditions: 0.1 μg/ml LPS 16 h, read-out: EC50 for the inhibition of the human PBMC TNF-α response to endotoxin, ave. ± S.D.
Summary of the method: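 PBMCs at 2e6 cells/ml in RPMI 1640 with 10% charcoal-dextran-treated FBS were pre-treated 1 h at 37 °C with compound (4-point 1:5 dilution from 10 μM). Stimulation with 0.1 μg/ml E. coli 0111:B4 LPS for 16 h; TNF-α measured by ELISA (A450) in 25-fold diluted supernatant.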

[4] = target: T3, AurA (Homo sapiens, UniProt O14965); test: Probe-based (AX9989) kinase profiling in Jurkat lysate: AurA; assay type: binding; conditions: screening concentration 1 μM; read-out: AurA Inhibition % at indicated screening concentration
T3 construct: screened for activity against several kinases in Jurkat cells; endogenous in cells; host or cells: Jurkat cell lysate
T3 sequence (O14965 1-403): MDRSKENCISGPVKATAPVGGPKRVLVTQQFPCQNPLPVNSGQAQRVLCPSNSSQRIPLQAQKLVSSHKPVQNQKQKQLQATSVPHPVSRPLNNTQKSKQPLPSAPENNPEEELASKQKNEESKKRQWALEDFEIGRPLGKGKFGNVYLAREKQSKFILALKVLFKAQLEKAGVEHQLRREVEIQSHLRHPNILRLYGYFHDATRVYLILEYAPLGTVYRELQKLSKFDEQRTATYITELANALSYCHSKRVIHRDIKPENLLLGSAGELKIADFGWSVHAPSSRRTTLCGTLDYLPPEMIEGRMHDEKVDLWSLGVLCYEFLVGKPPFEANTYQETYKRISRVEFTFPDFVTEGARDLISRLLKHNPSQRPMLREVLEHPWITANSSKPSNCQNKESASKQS
Summary of the method: (§1)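 Jurkat lysate, HEPES pH 7.5 buffer + 20 mM MnCl2; cpd 15 min RT; AX9989 ATP probe 5 μM final, RT. Trypsin digest, streptavidin capture, LC/MS; % inhibition vs vehicle from labeled-peptide signal.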

[5] = target: T4, ACK (Homo sapiens, UniProt Q07912); test: Probe-based (AX9989) kinase profiling in Jurkat lysate: ACK; assay type: binding; conditions: screening concentration 1 μM; read-out: ACK Inhibition % at indicated screening concentration
T4 construct: screened for activity against several kinases in Jurkat cells; endogenous in cells; host or cells: Jurkat cell lysate
T4 sequence (Q07912 whole entry): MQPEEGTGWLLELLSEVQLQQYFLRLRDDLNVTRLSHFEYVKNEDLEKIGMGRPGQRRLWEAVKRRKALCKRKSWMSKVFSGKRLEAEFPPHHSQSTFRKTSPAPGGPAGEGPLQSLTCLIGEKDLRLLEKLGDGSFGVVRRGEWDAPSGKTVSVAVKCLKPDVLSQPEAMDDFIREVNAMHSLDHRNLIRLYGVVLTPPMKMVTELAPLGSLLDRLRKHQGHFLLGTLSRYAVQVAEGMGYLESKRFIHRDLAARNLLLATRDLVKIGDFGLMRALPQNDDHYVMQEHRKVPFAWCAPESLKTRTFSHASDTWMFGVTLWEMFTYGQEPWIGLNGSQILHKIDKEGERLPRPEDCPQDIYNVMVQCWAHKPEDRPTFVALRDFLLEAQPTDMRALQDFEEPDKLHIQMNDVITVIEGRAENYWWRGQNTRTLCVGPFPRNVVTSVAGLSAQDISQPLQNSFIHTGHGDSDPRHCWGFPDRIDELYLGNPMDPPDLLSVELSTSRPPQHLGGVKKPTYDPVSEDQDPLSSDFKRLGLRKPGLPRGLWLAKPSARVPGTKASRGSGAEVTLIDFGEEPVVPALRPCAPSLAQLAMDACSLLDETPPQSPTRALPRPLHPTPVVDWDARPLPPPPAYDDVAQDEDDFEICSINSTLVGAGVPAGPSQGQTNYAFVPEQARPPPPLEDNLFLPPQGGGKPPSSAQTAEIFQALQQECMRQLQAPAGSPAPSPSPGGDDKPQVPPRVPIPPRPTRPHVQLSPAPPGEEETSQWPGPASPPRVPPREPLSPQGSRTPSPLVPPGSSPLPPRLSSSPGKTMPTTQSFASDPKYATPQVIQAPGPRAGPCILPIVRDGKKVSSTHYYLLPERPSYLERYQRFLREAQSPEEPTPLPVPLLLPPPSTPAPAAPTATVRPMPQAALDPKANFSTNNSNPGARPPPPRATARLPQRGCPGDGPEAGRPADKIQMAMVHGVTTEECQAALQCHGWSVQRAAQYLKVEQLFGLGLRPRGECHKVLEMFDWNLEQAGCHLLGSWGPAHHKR
Summary of the method: as §1

[6] = target: T5, TAO2 (Homo sapiens, UniProt Q9UL54); test: Probe-based (AX9989) kinase profiling in Jurkat lysate: TAO2; assay type: binding; conditions: screening concentration 1 μM; read-out: TAO2 Inhibition % at indicated screening concentration
T5 construct: screened for activity against several kinases in Jurkat cells; endogenous in cells; host or cells: Jurkat cell lysate
T5 sequence (Q9UL54 1-1235): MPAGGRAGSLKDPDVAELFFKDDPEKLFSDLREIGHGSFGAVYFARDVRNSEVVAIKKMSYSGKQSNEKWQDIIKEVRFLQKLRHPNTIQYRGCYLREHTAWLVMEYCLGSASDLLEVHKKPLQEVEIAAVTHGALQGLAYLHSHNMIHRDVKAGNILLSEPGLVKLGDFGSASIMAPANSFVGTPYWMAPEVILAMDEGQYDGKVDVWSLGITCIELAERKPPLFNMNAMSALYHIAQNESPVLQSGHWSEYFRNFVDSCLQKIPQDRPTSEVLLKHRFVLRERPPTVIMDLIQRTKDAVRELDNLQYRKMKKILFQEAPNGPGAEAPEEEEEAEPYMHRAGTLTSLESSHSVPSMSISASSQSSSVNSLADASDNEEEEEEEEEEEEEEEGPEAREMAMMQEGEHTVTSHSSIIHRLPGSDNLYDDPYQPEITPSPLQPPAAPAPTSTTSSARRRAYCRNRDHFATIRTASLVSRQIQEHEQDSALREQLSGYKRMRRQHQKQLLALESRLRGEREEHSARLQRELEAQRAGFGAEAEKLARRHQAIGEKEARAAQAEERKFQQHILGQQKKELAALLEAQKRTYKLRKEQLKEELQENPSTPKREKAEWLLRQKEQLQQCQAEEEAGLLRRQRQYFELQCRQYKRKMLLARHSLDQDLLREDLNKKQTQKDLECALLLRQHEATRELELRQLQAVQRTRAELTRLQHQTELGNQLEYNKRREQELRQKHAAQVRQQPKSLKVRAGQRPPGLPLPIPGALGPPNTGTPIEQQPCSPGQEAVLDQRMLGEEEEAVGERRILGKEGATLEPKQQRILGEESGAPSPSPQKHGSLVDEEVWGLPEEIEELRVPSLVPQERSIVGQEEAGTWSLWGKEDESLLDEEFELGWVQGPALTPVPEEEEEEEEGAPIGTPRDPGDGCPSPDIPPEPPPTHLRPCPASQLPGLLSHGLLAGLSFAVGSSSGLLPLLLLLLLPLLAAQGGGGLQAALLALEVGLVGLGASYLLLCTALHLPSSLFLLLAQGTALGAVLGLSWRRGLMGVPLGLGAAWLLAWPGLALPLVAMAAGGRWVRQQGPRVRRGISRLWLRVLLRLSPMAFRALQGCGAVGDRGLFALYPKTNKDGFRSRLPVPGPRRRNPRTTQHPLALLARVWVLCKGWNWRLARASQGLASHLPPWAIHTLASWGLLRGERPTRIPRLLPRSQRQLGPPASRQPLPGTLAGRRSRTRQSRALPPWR
Summary of the method: as §1

[7] = system: AMPKa1 or AMPKa2; test: Probe-based (AX9989) kinase profiling in Jurkat lysate: AMPKa1 or AMPKa2; assay type: binding; conditions: screening concentration 1 μM
Summary of the method: as §1

[8] = system: ABL or ARG; test: Probe-based (AX9989) kinase profiling in Jurkat lysate: ABL or ARG; assay type: binding; conditions: screening concentration 1 μM
Summary of the method: as §1

[9] = system: AurB or AurC; test: Probe-based (AX9989) kinase profiling in Jurkat lysate: AurB or AurC; assay type: binding; conditions: screening concentration 1 μM
Summary of the method: as §1

[10] = target: T6, JAK1 (Homo sapiens, UniProt P23458); test: Probe-based (AX9989) kinase profiling in Jurkat lysate: JAK1; assay type: binding; conditions: screening concentration 1 μM; read-out: JAK1 Inhibition % at indicated screening concentration
T6 construct: screened for activity against several kinases in Jurkat cells; endogenous in cells; host or cells: Jurkat cell lysate
T6 sequence (P23458 whole entry): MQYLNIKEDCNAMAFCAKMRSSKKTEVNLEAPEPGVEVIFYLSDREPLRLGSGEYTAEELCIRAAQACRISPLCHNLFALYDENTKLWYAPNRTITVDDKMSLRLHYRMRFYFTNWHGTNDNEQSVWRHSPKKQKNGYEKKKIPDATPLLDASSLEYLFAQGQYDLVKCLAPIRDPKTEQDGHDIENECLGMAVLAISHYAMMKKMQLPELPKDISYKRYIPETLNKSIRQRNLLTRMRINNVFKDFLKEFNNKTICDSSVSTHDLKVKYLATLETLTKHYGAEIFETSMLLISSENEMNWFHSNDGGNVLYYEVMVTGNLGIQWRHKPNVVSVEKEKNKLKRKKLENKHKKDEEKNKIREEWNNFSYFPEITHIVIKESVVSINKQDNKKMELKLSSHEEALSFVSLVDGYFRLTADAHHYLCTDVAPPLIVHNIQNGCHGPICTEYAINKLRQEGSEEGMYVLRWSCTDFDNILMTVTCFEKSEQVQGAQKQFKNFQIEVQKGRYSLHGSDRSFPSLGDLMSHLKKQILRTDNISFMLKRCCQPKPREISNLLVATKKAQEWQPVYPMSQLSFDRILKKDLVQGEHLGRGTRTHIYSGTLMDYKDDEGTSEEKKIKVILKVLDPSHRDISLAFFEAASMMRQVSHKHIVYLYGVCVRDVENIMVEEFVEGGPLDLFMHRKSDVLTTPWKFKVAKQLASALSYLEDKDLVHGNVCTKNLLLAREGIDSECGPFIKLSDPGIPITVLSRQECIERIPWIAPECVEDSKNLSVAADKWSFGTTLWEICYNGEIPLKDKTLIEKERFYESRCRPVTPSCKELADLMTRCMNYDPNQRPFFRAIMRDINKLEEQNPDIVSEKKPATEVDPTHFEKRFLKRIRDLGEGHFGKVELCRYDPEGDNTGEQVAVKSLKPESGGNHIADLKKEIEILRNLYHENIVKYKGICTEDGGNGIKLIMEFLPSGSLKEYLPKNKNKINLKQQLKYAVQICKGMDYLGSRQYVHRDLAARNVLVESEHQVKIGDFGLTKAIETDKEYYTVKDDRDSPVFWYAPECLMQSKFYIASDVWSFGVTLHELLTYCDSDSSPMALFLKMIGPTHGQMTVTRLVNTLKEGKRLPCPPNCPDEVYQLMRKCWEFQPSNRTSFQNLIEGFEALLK
Summary of the method: as §1

[11] = calculated from percent inhibition of AX9989 labeling and the screening concentration
[12] = screening concentration 1.0 μM, read-out: Kinase inhibition % at indicated screening concentration: ERK5
[13] = calculated from percent inhibition and screening concentration, AX9989 probe
[14] = screening concentration 1 μM, read-out: ERK5 Inhibition % at indicated screening concentration

T1 sequence (Q13164 whole entry): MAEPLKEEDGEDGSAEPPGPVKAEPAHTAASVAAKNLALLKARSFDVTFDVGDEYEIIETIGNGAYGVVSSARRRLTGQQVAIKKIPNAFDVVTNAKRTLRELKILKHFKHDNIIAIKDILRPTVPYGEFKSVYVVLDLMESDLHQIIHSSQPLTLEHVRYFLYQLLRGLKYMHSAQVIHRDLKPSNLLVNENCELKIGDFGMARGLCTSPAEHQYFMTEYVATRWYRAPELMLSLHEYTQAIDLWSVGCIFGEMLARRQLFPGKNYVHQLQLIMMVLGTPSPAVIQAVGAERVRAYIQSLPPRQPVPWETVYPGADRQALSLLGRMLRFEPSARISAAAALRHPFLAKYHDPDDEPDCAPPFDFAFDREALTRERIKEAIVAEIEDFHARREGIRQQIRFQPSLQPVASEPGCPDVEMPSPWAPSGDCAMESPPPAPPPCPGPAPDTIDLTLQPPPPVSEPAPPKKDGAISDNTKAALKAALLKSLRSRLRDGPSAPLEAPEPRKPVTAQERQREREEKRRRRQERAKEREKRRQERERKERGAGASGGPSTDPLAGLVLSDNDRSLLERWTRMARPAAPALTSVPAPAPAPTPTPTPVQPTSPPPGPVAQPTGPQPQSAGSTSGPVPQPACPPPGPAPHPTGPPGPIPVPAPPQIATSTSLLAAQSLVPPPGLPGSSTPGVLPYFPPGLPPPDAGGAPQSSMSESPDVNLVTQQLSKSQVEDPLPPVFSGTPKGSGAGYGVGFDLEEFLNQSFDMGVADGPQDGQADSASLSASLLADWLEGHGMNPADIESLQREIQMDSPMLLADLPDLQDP

| Compound | IC50 [1, 11] | inhibition at 1 µM [1, 12] | inhibition at 10 µM [2] | inhibition at 1 µM [4] | inhibition at 1 µM [5] | IC50 [1, 13] | inhibition at 1 µM [1, 14] | inhibition at 1 µM [6] | AMPKa1 or AMPKa2 Inhibition % at indicated screening concentration [7] | ABL or ARG Inhibition % at indicated screening concentration [8] | AurB or AurC Inhibition % at indicated screening concentration [9] | inhibition at 1 µM [10] | EC50 [3] |
| --- | --- | --- | --- | --- | --- | --- | --- | --- | --- | --- | --- | --- | --- |
| CCOc1cc(C(=O)NCCN(C)C)ccc1Nc1cc2c(cn1)N(C)C(=O)c1ccccc1N2C [Compound 1] | 101 to 500 nM | 75 to 90% | 70 to 85% | – | – | – | – | – | – | – | – | – | – |
| CCOc1cc(C(=O)NC2CC2)ccc1Nc1cc2c(cn1)N(C)C(=O)c1ccccc1N2C [Compound 2] | > 500 nM | ≤ 35% | < 70% | – | – | – | – | – | – | – | – | – | – |

The next lines start with results.

| IC50 [1, 11] | inhibition at 1 µM [1, 12] | inhibition at 10 µM [2] | inhibition at 1 µM [4] | inhibition at 1 µM [5] | IC50 [1, 13] | inhibition at 1 µM [1, 14] | inhibition at 1 µM [6] | AMPKa1 or AMPKa2 Inhibition % at indicated screening concentration [7] | ABL or ARG Inhibition % at indicated screening concentration [8] | AurB or AurC Inhibition % at indicated screening concentration [9] | inhibition at 1 µM [10] | Compound | EC50 [3] |
| --- | --- | --- | --- | --- | --- | --- | --- | --- | --- | --- | --- | --- | --- |
| – | – | > 85% | – | – | – | – | – | – | – | – | – | CCOc1cc(C(=O)N2CC[C@H](NC3CCN(C)CC3)C2)ccc1Nc1cc2c(cn1)N(C)C(=O)c1ccccc1N2C [Compound T61] | 420 nM |
| – | – | – | ≤ 35% | ≤ 35% | ≤ 50 nM | > 90% | ≤ 35% | E (E is ≦35%) | E (E is ≦35%) | E (E is ≦35%) | ≤ 35% | CN1CCN([C@@H]2CCN(C(=O)c3ccc(Nc4cc5c(cn4)N(C)C(=O)c4ccccc4N5C)c(OC(F)F)c3)C2)CC1 [Compound T75] | 1550 ± 1110 nM |
| – | – | – | ≤ 35% | ≤ 35% | 50 to 100 nM | > 90% | ≤ 35% | E (E is ≦35%) | E (E is ≦35%) | E (E is ≦35%) | ≤ 35% | [2H]C([2H])([2H])N1C(=O)c2ccccc2N(C([2H])([2H])[2H])c2cc(Nc3ccc(C(=O)N4CCN(C(C)=O)CC4)cc3OCC)ncc21 [Compound T77] | 6330 nM |

Reference: patent publication US20170008888A1 (KYORIN PHARMACEUTICAL CO., LTD., priority 2014, published 2017)
